Assay results published in US5795905A, “CRF receptor antagonists and methods relating thereto” (Neurocrine Biosciences, Inc., priority 1995, dated 1998).

Biological target: T1, human CRF receptors (Homo sapiens, UniProt P34998)
T1 construct: expressed in transfected cells
T1 sequence (P34998 24-415): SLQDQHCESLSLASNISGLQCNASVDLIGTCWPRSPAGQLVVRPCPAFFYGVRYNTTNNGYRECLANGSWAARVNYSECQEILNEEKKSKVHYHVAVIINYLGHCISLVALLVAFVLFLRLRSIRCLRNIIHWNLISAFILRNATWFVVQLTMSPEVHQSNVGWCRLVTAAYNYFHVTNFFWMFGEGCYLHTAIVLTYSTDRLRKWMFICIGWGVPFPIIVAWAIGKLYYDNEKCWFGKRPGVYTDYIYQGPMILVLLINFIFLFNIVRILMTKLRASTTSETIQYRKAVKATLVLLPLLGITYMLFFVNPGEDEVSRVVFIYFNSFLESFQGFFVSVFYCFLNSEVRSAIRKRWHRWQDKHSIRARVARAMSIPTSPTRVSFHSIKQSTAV
Assay: standard radioligand binding assay: displacement of radiolabeled CRF ligand from the CRF receptor
Conditions: Table 7 title: Ki ≤ 250 nM; cells stably transfected with human CRF receptors; [125I]tyrosine-ovine CRF ~200 pM; 2 hours at 22° C.
Excerpt: The effectiveness of a compound as a CRF receptor antagonist may be determined by various assay methods. Suitable CRF antagonists of this invention are capable of inhibiting the specific binding of CRF to its receptor and antagonizing activities associated with CRF. A compound of structures I through VI may be assessed for activity as a CRF antagonist by one or more generally accepted assays for this purpose, including (but not limited to) the assays disclosed by DeSouza et al. (J. Neuroscience 7:88, 1987) and Battaglia et al. (Synapse 1:572, 1987). […] CRF receptor affinity may be determined by binding studies that measure the ability of a compound to inhibit the binding of a radiolabeled CRF (e.g., [^125 I]tyrosine-CFR) to its receptor (e.g. receptors prepared from rat cerebral cortex membranes). The radioligand binding assay described by DeSouza et al. (supra, 1987) provides an assay for determining a compound's affinity for the CRF receptor. Such activity is typically calculated from the IC50 as the concentration of a compound necessary to displace 50% of the radiolabeled ligand from the receptor, and is reported as a "Ki " value calculated by the following equation: [formula] where L=radioligand and KD =affinity of radioligand for receptor (Cheng and Prusoff, Biochem. Pharmacol. 22:3099, 1973).
Compounds were evaluated for binding activity to the CRF receptor by a standard radioligand binding assay as generally described by DeSouza et al. (J. Neurosci. 7:88-100, 1987). By utilizing various radiolabeled CRF ligands, the assay may be used to evaluate the binding activity of the compounds of the present invention with any CRF receptor subtype. Briefly, the binding assay involves the displacement of a radiolabeled CRF ligand from the CRF receptor.
More specifically, the binding assay was performed in 1.5 ml Eppendorf tubes using approximately 1×10^6 cells per tube stably transfected with human CRF receptors. Each tube received about 0.1 ml of assay buffer (e.g., Dulbecco's phosphate buffered saline, 10 mM magnesium chloride, 20 μM bacitracin) with or without unlabeled sauvagine, urotensin I or CRF (final concentration, 1 μM) to determine nonspecific binding, 0.1 ml of [^125 ] tyrosine--ovine CRF (final concentration ~200 pM or approximately the KD as determined by Scatchard analysis) and 0.1 ml of a membrane suspension of cells containing the CRF receptor. The mixture was incubated for 2 hours at 22° C. followed by the separation of the bound and free radioligand by centrifugation. Following two washes of the pellets, the tubes were cut just above the pellet and monitored in a gamma counter for radioactivity at approximately 80% efficiency. All radioligand binding data was analyzed using the non-linear least-square curve-fitting program LIGAND of Munson and Rodbard (Anal. Biochem. 107:220, […]).
Binding activity corresponds to the concentration (nM) of the compound necessary to displace 50% of the radiolabeled ligand from the receptor.

Row | SMILES | Ki [nM]
1 | CCCN(c1nc(N)nc(-c2ccc(Cl)cc2Cl)n1)C(C1CC1)C1CC1 [IV-7] | ≤ 250
2 | CCCN(c1nccc(-c2c(C)cc(C)cc2C)n1)C(C1CC1)C1CC1 [II-24] | ≤ 250
3 | CCCN(c1nccc(-c2ccc(OC)cc2C)n1)C(C1CC1)C1CC1 [II-43] | ≤ 250
4 | CCCN(c1ncc(C)c(-c2ccc(Cl)cc2)n1)C(C1CC1)C1CC1 [II-7] | ≤ 250
5 | CCCN(c1nccc(-c2c(Cl)cc(Cl)cc2Cl)n1)C(C1CC1)C1CC1 [II-11, 2-(N-dicyclopropylmethyl-N-propylamino)-4-(2',4',6'-trichlorophenyl)-pyrimidine] | ≤ 250
6 | CCCN(c1nccc(-c2c(OC)cccc2OC)n1)C(C1CC1)C1CC1 [II-23, 2-(N-dicyclopropylmethyl-N-propyl)-4-(2',6'-dimethoxyphenyl)pyrimidine] | ≤ 250
7 | CCCN(c1ncc(C)c(-c2ccc(Cl)cc2OC)n1)C(C1CC1)C1CC1 [II-32] | ≤ 250
8 | CCCN(c1nccc(-c2c(OC)cc(OC)cc2OC)n1)C(C1CC1)C1CC1 [II-22, 2-(N-dicyclopropylmethyl-N-propylamino)-4-(2',4',6'-trimethoxyphenyl)pyrimidine] | ≤ 250
9 | CCCN(c1ncc(C)c(-c2c(OC)cc(OC)cc2OC)n1)C(C1CC1)C1CC1 [II-25] | ≤ 250
10 | CCCN(c1nccc(-c2c(OC)cc(Cl)cc2OC)n1)C(C1CC1)C1CC1 [II-35] | ≤ 250
11 | CCCN(c1ncc(C)c(-c2ccc(Br)cc2)n1)C(C1CC1)C1CC1 [II-16, 2-(N-dicyclopropylmethyl-N-propylamino)-4-(4'-bromophenyl)-5-methylpyrimidine] | ≤ 250
12 | CCCN(c1ncnc(-c2ccc(Cl)cc2Cl)n1)C(C1CC1)C1CC1 [IV-8, 2-(N-dicyclopropylmethyl-N-propylamino)-4-(2',4'-dichlorophenyl)triazine] | ≤ 250
13 | CCCN(c1nc(N)nc(-c2c(Cl)cc(Cl)cc2Cl)n1)C(C1CC1)C1CC1 [IV-2, 2-(2',4',6'-trichlorophenyl)-4-(N-dicyclopropylmethyl-N-propylamino)-6-aminotriazine] | ≤ 250
14 | CCCN(c1ncc(C)c(-c2ccc(OC)cc2OC)n1)C(C1CC1)C1CC1 [II-39] | ≤ 250
